Publication PMC5007443, “TNIK inhibition abrogates colorectal cancer stemness” (Nature Communications, 2016)

Assays:
KDR = KDR (Homo sapiens, UniProt P35968); assay: Kinase selectivity profiling, Kinase insert domain receptor; format: biochemical; conditions: read-out: Percentage inhibition of KDR
Procedure: (§1) The selectivity of compounds against a panel of 50 human protein kinases was assessed using a non-radiometric assay.

MET = MET (Homo sapiens, UniProt P08581); assay: Kinase selectivity profiling, Hepatocyte growth factor receptor; format: biochemical; conditions: read-out: Percentage inhibition of MET
Chain of MET (P08581 25-1390): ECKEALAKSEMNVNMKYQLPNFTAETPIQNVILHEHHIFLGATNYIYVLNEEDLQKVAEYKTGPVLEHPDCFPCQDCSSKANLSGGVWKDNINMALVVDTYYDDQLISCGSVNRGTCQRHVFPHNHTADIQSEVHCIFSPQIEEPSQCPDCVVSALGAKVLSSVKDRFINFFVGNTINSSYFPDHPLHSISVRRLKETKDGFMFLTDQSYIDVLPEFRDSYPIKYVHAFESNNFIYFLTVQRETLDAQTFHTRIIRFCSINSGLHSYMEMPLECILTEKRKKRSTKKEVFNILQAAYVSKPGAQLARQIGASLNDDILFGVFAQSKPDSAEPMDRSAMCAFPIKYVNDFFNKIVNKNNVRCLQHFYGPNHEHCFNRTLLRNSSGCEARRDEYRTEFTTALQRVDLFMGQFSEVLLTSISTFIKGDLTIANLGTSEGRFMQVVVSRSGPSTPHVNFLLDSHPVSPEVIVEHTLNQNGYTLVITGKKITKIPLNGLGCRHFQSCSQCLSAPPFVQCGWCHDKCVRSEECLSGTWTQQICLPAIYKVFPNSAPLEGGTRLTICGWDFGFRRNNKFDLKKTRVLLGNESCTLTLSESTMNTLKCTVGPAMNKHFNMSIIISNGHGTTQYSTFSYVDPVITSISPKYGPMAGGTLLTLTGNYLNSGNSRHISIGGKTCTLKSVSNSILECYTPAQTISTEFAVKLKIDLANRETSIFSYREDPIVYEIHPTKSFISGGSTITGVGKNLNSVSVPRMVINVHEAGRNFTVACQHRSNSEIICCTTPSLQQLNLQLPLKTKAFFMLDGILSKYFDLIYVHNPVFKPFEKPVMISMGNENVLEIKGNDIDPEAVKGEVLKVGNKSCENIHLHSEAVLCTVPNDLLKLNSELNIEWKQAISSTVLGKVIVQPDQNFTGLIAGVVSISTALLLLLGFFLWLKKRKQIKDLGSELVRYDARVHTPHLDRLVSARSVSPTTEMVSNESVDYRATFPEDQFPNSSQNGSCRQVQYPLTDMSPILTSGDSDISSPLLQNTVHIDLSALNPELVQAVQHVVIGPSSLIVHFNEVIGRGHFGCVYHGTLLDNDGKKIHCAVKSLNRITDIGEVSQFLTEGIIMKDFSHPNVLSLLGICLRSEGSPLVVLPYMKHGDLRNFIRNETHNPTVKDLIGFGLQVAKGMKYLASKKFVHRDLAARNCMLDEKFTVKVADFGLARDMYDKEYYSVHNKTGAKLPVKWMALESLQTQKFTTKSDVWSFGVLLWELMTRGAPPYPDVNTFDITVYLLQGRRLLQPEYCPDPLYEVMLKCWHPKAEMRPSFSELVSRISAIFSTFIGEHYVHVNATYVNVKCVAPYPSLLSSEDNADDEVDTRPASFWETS
Procedure: as §1

CaMK4 = CaMK4 (Homo sapiens, UniProt Q16566); assay: Kinase selectivity profiling, Calcium/calmodulin-dependent protein kinase IV; format: biochemical; conditions: read-out: Percentage inhibition of CaMK4
Chain of CaMK4 (Q16566 whole entry): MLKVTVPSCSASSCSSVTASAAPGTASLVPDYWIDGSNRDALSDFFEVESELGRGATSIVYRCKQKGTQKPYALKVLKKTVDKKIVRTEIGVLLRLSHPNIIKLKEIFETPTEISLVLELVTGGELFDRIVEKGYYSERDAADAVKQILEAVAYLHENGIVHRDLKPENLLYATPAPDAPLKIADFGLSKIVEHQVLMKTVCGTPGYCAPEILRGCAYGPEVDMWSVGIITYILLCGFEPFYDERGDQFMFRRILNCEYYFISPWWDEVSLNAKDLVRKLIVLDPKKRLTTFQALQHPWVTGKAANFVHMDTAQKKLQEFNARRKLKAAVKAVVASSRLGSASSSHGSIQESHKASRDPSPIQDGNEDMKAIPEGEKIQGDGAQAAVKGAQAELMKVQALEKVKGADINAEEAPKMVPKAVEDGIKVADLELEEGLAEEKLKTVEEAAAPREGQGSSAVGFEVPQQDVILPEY
Procedure: as §1

ROCK1 = ROCK1 (Homo sapiens, UniProt Q13464); assay: Kinase selectivity profiling, Rho-associated, coiled-coil containing protein kinase 1; format: biochemical; conditions: read-out: Percentage inhibition of ROCK1
Chain of ROCK1 (Q13464 whole entry): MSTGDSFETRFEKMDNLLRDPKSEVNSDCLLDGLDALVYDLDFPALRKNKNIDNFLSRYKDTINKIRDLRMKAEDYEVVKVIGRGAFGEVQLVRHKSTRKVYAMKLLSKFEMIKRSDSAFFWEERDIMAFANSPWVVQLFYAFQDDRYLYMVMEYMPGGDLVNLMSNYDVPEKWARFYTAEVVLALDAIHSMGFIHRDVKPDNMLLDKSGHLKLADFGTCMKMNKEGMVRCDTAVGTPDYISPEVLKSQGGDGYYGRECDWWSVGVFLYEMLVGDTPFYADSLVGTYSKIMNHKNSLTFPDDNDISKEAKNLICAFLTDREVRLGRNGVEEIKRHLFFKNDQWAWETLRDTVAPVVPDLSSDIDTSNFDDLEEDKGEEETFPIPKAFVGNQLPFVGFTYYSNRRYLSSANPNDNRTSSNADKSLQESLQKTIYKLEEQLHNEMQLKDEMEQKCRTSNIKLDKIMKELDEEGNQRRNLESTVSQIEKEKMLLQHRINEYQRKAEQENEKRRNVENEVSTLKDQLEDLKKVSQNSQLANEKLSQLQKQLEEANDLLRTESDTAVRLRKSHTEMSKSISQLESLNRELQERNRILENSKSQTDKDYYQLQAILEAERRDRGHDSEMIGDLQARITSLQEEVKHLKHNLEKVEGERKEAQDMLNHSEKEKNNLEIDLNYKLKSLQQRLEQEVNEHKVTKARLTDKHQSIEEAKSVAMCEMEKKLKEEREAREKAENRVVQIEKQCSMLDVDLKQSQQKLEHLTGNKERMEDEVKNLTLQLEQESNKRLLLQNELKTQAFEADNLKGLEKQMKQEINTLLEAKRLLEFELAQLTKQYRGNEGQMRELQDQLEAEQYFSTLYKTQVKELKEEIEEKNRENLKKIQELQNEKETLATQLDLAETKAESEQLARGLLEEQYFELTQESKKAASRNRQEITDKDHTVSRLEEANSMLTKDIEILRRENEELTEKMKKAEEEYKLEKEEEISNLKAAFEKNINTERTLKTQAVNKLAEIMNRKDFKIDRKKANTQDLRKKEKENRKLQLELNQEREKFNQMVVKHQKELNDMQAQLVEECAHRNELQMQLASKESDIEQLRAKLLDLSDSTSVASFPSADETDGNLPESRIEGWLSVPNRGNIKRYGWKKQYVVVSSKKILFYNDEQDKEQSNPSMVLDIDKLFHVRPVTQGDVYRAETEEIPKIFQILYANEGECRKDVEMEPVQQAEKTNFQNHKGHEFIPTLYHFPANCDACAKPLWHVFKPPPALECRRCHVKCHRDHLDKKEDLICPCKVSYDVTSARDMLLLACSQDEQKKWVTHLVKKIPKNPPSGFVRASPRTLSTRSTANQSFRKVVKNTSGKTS
Procedure: as §1

TIE2 = TIE2 (Homo sapiens, UniProt Q02763); assay: Kinase selectivity profiling, TEK tyrosine kinase; format: biochemical; conditions: read-out: Percentage inhibition of TIE2
Procedure: as §1

CHK1 = CHK1 (Homo sapiens, UniProt O14757); assay: Kinase selectivity profiling, Checkpoint kinase 1; format: biochemical; conditions: read-out: Percentage inhibition of CHK1
Chain of CHK1 (O14757 whole entry): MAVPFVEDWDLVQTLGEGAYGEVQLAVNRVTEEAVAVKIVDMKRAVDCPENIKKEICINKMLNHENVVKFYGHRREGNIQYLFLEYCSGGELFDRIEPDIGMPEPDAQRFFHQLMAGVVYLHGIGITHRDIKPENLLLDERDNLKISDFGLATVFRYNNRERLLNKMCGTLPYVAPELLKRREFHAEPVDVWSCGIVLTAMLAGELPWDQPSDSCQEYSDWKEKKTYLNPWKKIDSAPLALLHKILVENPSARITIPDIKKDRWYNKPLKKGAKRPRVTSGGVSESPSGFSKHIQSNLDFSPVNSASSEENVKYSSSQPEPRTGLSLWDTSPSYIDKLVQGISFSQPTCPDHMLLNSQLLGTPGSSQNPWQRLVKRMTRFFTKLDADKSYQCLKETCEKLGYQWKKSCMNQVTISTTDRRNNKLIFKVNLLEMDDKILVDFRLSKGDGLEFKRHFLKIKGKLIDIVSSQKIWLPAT
Procedure: as §1

TSSK1 = TSSK1 (Homo sapiens, UniProt Q9BXA7); assay: Kinase selectivity profiling, Testis-specific serine kinase 1; format: biochemical; conditions: read-out: Percentage inhibition of TSSK1
Procedure: as §1

HCT116 cells [1] = assay: Soft-agar colony-formation assay; format: cell-based; conditions: Homo sapiens, HCT-116, 336 h; HCT116, 14 days
Procedure: One milliliter of 0.33% agar (Lonza) in culture medium containing 1.5 × 10^4 cells was plated onto 1 ml of solidified base agar (0.5%) in each well of six-well clusters. The top agar layer was covered with culture medium containing serially diluted compounds. The medium was replaced every three days. Cell number was determined colorimetrically at 450–650 nm using the Cell Count Reagent SF (Nacalai Tesque). IC50 values were obtained by fitting a four-parameter dose–response curve to normalized data using GraphPad Prism version 5 (GraphPad software; Fig. 3b). Experiments were performed in triplicate and repeated at least two times.

p38α = p38α (Homo sapiens, UniProt Q16539); assay: Kinase selectivity profiling, Mitogen-activated protein kinase 14; format: biochemical; conditions: read-out: Percentage inhibition of p38α
Procedure: as §1

HCT116 xenografts = assay: HCT116 xenograft growth in BALB/c-nu/nu mice; format: in vivo, mouse; conditions: oral, 40 or 80 mg kg−1 BID, 14 days
Procedure: Five million HCT116 cells suspended in medium containing 25% Matrigel (BD Biosciences) were inoculated into the subcutaneous tissues of 9-week-old female BALB/c nude mice. When the tumour volume reached ∼80 mm^3, the mice were randomized according to tumour volume (9 mice per group).
(§2) Tumour volume was estimated based on the formula: (length × width^2)/2. The tumour volume (twice a week) and body weight (every day) of each mouse were recorded. The patient-derived spheroids and xenografts were established after obtaining informed consent from the donors.

[2] = system: Wnt target genes (AXIN2, MYC, CCND1) and TNIK; assay: RT-PCR of TNIK and Wnt target genes in HCT116 cells; format: cell-based, human; conditions: HCT116, 24 h
Procedure: (§3) Total RNA was prepared with an RNeasy Mini Kit (Qiagen). cDNA was synthesized using SuperScript II reverse transcriptase (Thermo Fisher Scientific) or a High-Capacity cDNA reverse transcription kit (Thermo Fisher Scientific) and subjected to TaqMan gene expression assay using pre-designed primer and probe sets (listed in Supplementary Table 3). Amplification data measured as an increase in reporter fluorescence were collected using the StepOne Real-Time PCR System (Thermo Fisher Scientific). The relative mRNA expression level normalized to the internal control (human/mouse β-actin (ACTB/Actb1) gene) was calculated by the comparative threshold cycle (CT) method. Experiments were performed in triplicate and repeated at least two times.

HCT116 cells [3] = assay: PARP-1 cleavage, immunoblotting; format: cell-based, human; conditions: HCT116, 1 μM, 24 or 48 h
Procedure: Protein samples were fractionated by SDS–PAGE and blotted onto Immobilon-P membranes (Millipore) as described previously. After incubation with the primary antibodies (listed in Supplementary Table 4) at 4 °C overnight, the blots were detected with the relevant horseradish peroxidase-conjugated anti-mouse or anti-rabbit IgG antibody (Cell Signaling Technology) and Western lighting ECL Pro (PerkinElmer). Signals were visualized with the LAS-4010 system (GE Healthcare). Uncropped versions of the blots in Figs 2e and 3f are shown in Supplementary Fig. 15.

[4] = system: TCF/LEF transcriptional activity; assay: TCF/LEF luciferase reporter in Wnt3a-treated HEK293 cells; format: cell-based, human; conditions: Wnt3a-treated HEK293, 24 h
Procedure: HEK293 cells were transiently transfected with pGL4.49[luc2P/TCF-LEF-RE/Hygro] reporter vector (Promega) using Fugene HD Transfection Reagent (Promega; Fig. 2f). After overnight incubation, the cells were then treated with 10 mM LiCl (Sigma-Aldrich). Luciferase activity was measured using the ONE-Glo Luciferase Assay System (Promega). The assay was performed in triplicate and repeated at least two times.
In some experiments cells were treated with mouse Wnt3a (PeproTech) (Fig. 1c) or human Wnt3a (R&D Systems; Fig. 2f) before the measurements, as indicated in the figure legends.

Apc^min/+ mice = assay: Intestinal tumorigenesis in Apc min/+ mice; format: in vivo, mouse; conditions: NCB-0846 HCl oral BID 22.5, 45, 90 mg kg−1, 35 days
Procedure: The mouse gut was filled with 10% buffered formalin (Sigma-Aldrich) via the anus immediately after sacrifice and opened longitudinally. The number and maximum diameter/area of tumours were measured by stereoscopic microscopy as described previously. Differences at P values of<0.05 were considered to be statistically significant.

[5] = system: CD44 and Ki67 expression in xenografts; assay: Immunohistochemistry of spheroid #6 xenografts; format: in vivo, mouse; conditions: spheroid #6 xenografts resected after treatment
Procedure: Immunoperoxidase staining (Fig. 6g) was performed using the Ventana DABMap detection kit and an automated slide stainer (Discovery XT, Ventana Medical Systems)[56].

[6] = system: Wnt-target genes (AXIN2, MYC and CCND1); assay: Pharmacodynamics: Wnt-target gene expression in HCT116 xenografts, RT-PCR; format: in vivo, mouse; conditions: single oral dose 90 or 150 mg kg−1 NCB-0846 HCl
Procedure: as §3

[7] = system: patient-derived colon cancer spheroid #19 xenograft; assay: Xenograft of patient-derived spheroid #19 in NOD/ShiJic-scid mice; format: in vivo, mouse; conditions: NCB-0846 HCl oral 50 or 100 mg kg−1 BID, 6-days-on, 1-day-off
Excerpt: Patient-derived colorectal cancer spheroids were dissociated, resuspended in medium containing 50% Matrigel (Corning), and inoculated subcutaneously (#6; 1 × 10^4 cells per injection, #19; 1 × 10^5 cells per injection) into the flank of female NOD/ShiJic-scid mice (4-week-old females; CLEA Japan). When the tumour volume reached ∼200 mm^3, the mice were randomized according tumour volume (10 mice per group) and treatment was started.
as §2

Chain of KDR (P35968 20-1356): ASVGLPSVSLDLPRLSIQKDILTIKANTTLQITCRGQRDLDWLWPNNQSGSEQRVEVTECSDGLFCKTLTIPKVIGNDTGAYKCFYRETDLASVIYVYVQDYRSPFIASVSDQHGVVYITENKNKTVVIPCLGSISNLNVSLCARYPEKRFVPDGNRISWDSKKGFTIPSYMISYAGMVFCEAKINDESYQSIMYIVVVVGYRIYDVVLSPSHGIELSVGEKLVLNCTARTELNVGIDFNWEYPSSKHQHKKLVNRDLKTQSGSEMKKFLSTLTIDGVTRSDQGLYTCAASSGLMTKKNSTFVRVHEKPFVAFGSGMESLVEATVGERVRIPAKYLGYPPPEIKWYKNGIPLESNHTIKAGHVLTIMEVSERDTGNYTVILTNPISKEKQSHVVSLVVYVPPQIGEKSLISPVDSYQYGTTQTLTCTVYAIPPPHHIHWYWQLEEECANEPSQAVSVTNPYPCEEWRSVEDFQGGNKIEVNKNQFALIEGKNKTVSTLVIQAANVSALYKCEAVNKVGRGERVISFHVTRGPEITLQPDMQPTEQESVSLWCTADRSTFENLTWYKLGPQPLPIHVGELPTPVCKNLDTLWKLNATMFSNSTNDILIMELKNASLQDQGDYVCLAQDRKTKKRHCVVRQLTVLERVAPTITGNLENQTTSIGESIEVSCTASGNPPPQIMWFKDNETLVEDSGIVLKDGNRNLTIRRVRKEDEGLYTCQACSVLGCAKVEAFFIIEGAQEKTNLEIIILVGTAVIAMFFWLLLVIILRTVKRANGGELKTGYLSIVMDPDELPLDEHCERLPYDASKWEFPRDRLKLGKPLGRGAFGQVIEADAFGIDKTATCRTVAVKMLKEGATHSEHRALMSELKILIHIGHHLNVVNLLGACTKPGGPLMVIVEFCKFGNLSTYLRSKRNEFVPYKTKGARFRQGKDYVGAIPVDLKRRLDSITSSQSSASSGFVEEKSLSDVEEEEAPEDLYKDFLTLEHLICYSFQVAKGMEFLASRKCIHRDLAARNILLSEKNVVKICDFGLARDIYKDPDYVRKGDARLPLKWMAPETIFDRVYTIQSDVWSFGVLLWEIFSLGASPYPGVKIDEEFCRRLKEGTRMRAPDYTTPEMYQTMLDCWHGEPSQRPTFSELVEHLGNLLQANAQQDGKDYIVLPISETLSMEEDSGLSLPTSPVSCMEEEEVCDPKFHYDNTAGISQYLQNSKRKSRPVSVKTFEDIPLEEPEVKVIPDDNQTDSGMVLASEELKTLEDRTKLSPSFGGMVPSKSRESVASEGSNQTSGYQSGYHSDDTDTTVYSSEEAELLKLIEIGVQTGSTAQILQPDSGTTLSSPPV

In the case of O[C@H]1CC[C@H](Oc2cccc3cnc(Nc4ccc5nc[nH]c5c4)nc23)CC1 [NCB-0970], the inhibition at 0.1 µM (KDR) is reported as 43.7%, the inhibition at 0.1 µM (MET) is reported as 16.1% and the inhibition at 0.1 µM (CaMK4) is reported as -4.1%. The inhibition at 0.1 µM (ROCK1) was 9.7%, the inhibition at 0.1 µM (TIE2) was -2.8% and the inhibition at 0.1 µM (CHK1) was 9%. For the same compound, the inhibition at 0.1 µM (TSSK1) was 1.1%, the IC50 (HCT116 cells [1]) was 3.85 µM and the inhibition at 0.1 µM (p38α) was -2.8%.
For O[C@H]1CC[C@@H](Oc2cccc3cnc(Nc4ccc5nc[nH]c5c4)nc23)CC1 [NCB-0846, cis-4-(2-(3H-benzo[d]imidazol-5-ylamino)quinazolin-8-yloxy)cyclohexanol], the growth of tumours (HCT116 xenografts) was “suppressed”, the inhibition at 0.1 µM (KDR) was 71.1% and the “expression of AXIN2 gene” value [2] was “reduced”. The “expression of CCND1 gene” value [2] was “not affected”, the “expression of MYC gene” value [2] was “reduced” and the “expression of TNIK gene” value [2] was “reduced”. The inhibition at 0.1 µM (MET) was 42.1%, the “Cleavage of PARP-1” value (HCT116 cells [3]) was “induction of apoptosis” and the TCF/LEF transcriptional activity [4] was “inhibited”. It also gave an inhibition at 0.1 µM (CaMK4) of -1.5%, an inhibition at 0.1 µM (ROCK1) of 20.1% and an inhibition at 0.1 µM (TIE2) of 4.9%. For the same compound, the inhibition at 0.1 µM (CHK1) was 10.1%, the “effect on colon tumorigenesis” value (Apc^min/+ mice) was “not statistically significant” and the “multiplicity and dimensions of tumours in the small intestine” value (Apc^min/+ mice) was “dose dependently reduced”. The inhibition at 0.1 µM (TSSK1) was 5.8%, the IC50 (HCT116 cells [1]) was 0.19 µM and the “CD44 expression in xenografts” value [5] was “suppression”. For the same compound, the “Ki67 expression in xenografts” value [5] was “modest decrease”, the inhibition at 0.1 µM (p38α) was -3.5% and the “expression of Wnt-target genes (AXIN2, MYC and CCND1) in xenografts” value [6] was “reduced”. For the same compound, the growth of tumours [7] was “suppressed”.
